Converted amounts (≈) assume the structure as drawn. Like-named read-outs stand apart in the source and are kept apart here.
Legend:
[1] = system: carbapenem sensitive Pseudomonas aeruginosa; experiment: MIC by broth micro-dilution (CLSI), carbapenem sensitive P. aeruginosa; assay type: cell-based; details: Pseudomonas aeruginosa
[2] = system: extended spectrum β lactamase (ESBL) SHV18 producing Klebsiella pneumoniae; experiment: MIC by broth micro-dilution (CLSI), ESBL SHV18 producing K. pneumoniae; assay type: cell-based; details: Klebsiella pneumoniae, ATCC700603, 22 h
[3] = system: carbapenem sensitive Escherichia coli; experiment: MIC by broth micro-dilution (CLSI), carbapenem sensitive E. coli; assay type: cell-based; details: Escherichia coli
[4] = system: carbapenemase producing K. pneumoniae; experiment: MIC by broth micro-dilution (CLSI), carbapenemase producing K. pneumoniae; assay type: cell-based, Klebsiella pneumoniae; details: Klebsiella pneumoniae
[5] = system: methicillin-sensitive Staphylococcus aureus; experiment: MIC by broth micro-dilution (CLSI), methicillin-sensitive S. aureus; assay type: cell-based; details: Staphylococcus aureus, ATCC 29213 / MSSA
[6] = ATCC27853, Meropenem susceptible P. aeruginosa ATCC27853, read-out: MIC
[7] = ESBL +ve (SHV-18) K. pneumoniae ATCC700603, read-out: MIC
[8] = ATCC25922, ESBL −ve E. coli ATCC25922, read-out: MIC
[9] = ATCCBAA1705, KPC-2 K. pneumoniae ATCC BAA-1705, read-out: MIC
[10] = MSSA S. aureus ATCC29213, read-out: MIC

Row | Compound | MIC [1, 6] [µg/mL] | MIC [2, 7] [µg/mL] | MIC [3, 8] [µg/mL] | MIC [4, 9] [µg/mL] | MIC [5, 10] [µg/mL] | MIC ([1]; ATCC27853) [µg/mL] | MIC [2] [µg/mL] | MIC ([3]; ATCC25922) [µg/mL] | MIC ([4]; ATCCBAA1705) [µg/mL] | MIC [5] [µg/mL]
1 | C[C@@H](NC(=O)C(F)F)[C@H]1C(=O)N2C(C(=O)O)=C(S[C@@H]3CNC(C[N+]4(C)CCCC4)C3)[C@H](C)[C@H]12 (some centres unmarked) [Example 80] | > 128 | 32 | 4 | 64 | 4 | – | – | – | – | –
2 | C[C@@H](NC(=O)C(F)F)[C@H]1C(=O)N2C(C(=O)O)=C(S[C@@H]3CNC(CN4CCCC4)C3)[C@H](C)[C@H]12 (some centres unmarked) [Example 81] | 64 (≈ 135 µM) | 8 (≈ 16.9 µM) | 1 (≈ 2.12 µM) | 8 (≈ 16.9 µM) | 1 (≈ 2.12 µM) | – | – | – | – | –
3 | CC(C)CC(F)(F)C(=O)N[C@H](C)[C@H]1C(=O)N2C(C(=O)O)=C(S[C@@H]3CN[C@H](C(=O)N(C)C)C3)[C@H](C)[C@H]12 [Example 83] | > 128 | > 128 | 64 (≈ 124 µM) | > 128 | 2 (≈ 3.87 µM) | – | – | – | – | –
4 | C[C@@H](NC(=O)C(F)F)[C@H]1C(=O)N2C(C(=O)O)=C(S[C@@H]3CN[C@H](CNS(C)(=O)=O)C3)[C@H](C)[C@H]12 [Example 85] | 64 (≈ 129 µM) | 2 (≈ 4.03 µM) | 0.5 (≈ 1.01 µM) | 2 (≈ 4.03 µM) | 1 (≈ 2.01 µM) | – | – | – | – | –
5 | C[C@@H](NS(=O)(=O)CC(F)(F)F)[C@H]1C(=O)N2C(C(=O)O)=C(S[C@@H]3CN[C@H](C(=O)N(C)C)C3)[C@H](C)[C@H]12 [Example 86] | 128 (≈ 242 µM) | 8 (≈ 15.1 µM) | 1 (≈ 1.89 µM) | 8 (≈ 15.1 µM) | 2 (≈ 3.78 µM) | – | – | – | – | –
6 | C[C@@H](NC(=O)C(F)(F)C(F)(F)F)[C@H]1C(=O)N2C(C(=O)O)=C(S[C@@H]3CN[C@H](C(=O)N(C)C)C3)[C@H](C)[C@H]12 [Example 87] | 64 (≈ 121 µM) | 8 (≈ 15.1 µM) | 1 (≈ 1.89 µM) | 8 (≈ 15.1 µM) | 2 (≈ 3.78 µM) | – | – | – | – | –
7 | C[C@@H](NC(=O)C(F)F)[C@H]1C(=O)N2C(C(=O)O)=C(Sc3nc(-c4ccncc4)cs3)[C@H](C)[C@H]12 [Example 88] | > 128 | > 128 | 128 (≈ 266 µM) | > 128 | 0.25 (≈ 0.52 µM) | – | – | – | – | –
8 | C[C@@H](NC(=O)C(F)F)[C@H]1C(=O)N2C(C(=O)O)=C(S[C@@H]3CN[C@H](CNC(=O)N(C)C)C3)[C@H](C)[C@H]12 [Example 89] | 128 (≈ 261 µM) | 8 (≈ 16.3 µM) | 0.5 (≈ 1.02 µM) | 4 (≈ 8.17 µM) | 0.5 (≈ 1.02 µM) | – | – | – | – | –
9 | C[C@@H](NC(=O)C(F)F)[C@H]1C(=O)N2C(C(=O)O)=C(S[C@@H]3CN[C@H](CN4CCOCC4)C3)[C@H](C)[C@H]12 [Example 90] | 128 (≈ 262 µM) | 32 (≈ 65.5 µM) | 1 (≈ 2.05 µM) | 4 (≈ 8.19 µM) | 1 (≈ 2.05 µM) | – | – | – | – | –
10 | COP(=O)(CC(=O)N[C@H](C)[C@H]1C(=O)N2C(C(=O)O)=C(S[C@@H]3CN[C@H](C(=O)N(C)C)C3)[C@H](C)[C@H]12)OC [Example 91] | – | – | – | – | – | > 128 | 32 (≈ 60.1 µM) | 4 (≈ 7.51 µM) | 32 (≈ 60.1 µM) | 16 (≈ 30 µM)
11 | C[C@@H](NC(=O)C(F)F)[C@H]1C(=O)N2C(C(=O)O)=C(SCCN)[C@H](C)[C@H]12 [Example 92] | 32 (≈ 88.1 µM) | 4 (≈ 11 µM) | 0.5 (≈ 1.38 µM) | 4 (≈ 11 µM) | 1 (≈ 2.75 µM) | – | – | – | – | –
12 | C[C@@H](NC(=O)C(F)F)[C@H]1C(=O)N2C(C(=O)O)=C(SCCNC(=O)OC(C)(C)C)[C@H](C)[C@H]12 [Example 93] | > 128 | > 128 | 128 (≈ 276 µM) | > 128 | 16 (≈ 34.5 µM) | – | – | – | – | –
13 | C[C@@H](NC(=O)C(F)F)[C@H]1C(=O)N2C(C(=O)O)=C(Sc3nc(-c4cc[n+](C)cc4)cs3)[C@H](C)[C@H]12 [Example 94] | > 128 | > 128 | 64 | > 128 | 0.25 | – | – | – | – | –
14 | CNCC(=O)N[C@@H](C)[C@H]1C(=O)N2C(C(=O)O)=C(S[C@H]3CN[C@H](C(=O)N4CC[C@@H](N)C4)C3)[C@H](C)[C@H]12 [Example 95, (4R,5S,6R)-3-((3R,5S)-5-((R)-3-aminopyrrolidine-1-carbonyl)pyrrolidin-3-ylthio)-4-methyl-6-((S)-1-(2-(methylamino)acetamido)ethyl)-7-oxo-1-azabicyclo[3.2.0]hept-2-ene-2-carboxylic acid] | 2 (≈ 4.04 µM) | 2 (≈ 4.04 µM) | 1 (≈ 2.02 µM) | 2 (≈ 4.04 µM) | 32 (≈ 64.7 µM) | – | – | – | – | –
15 | C[C@@H](NC(=O)C(F)F)[C@H]1C(=O)N2C(C(=O)O)=C(SCc3cccnc3)[C@H](C)[C@H]12 [Example 96] | > 128 | 64 (≈ 156 µM) | 4 (≈ 9.72 µM) | 32 (≈ 77.8 µM) | 1 (≈ 2.43 µM) | – | – | – | – | –
16 | C[C@@H](NC(=O)C(F)F)[C@H]1C(=O)N2C(C(=O)O)=C(SCc3ccncc3)[C@H](C)[C@H]12 [Example 97] | > 128 | 128 (≈ 311 µM) | 8 (≈ 19.4 µM) | 64 (≈ 156 µM) | 1 (≈ 2.43 µM) | – | – | – | – | –
